From US9150566B2, “2-(1,2,3-triazol-2-yl)benzamide and 3-(1,2,3-triazol-2-YL)picolinamide derivatives as orexin receptor antagonists” (ACTELION PHARMACEUTICALS LTD., priority 2011, dated 2015)
pIC50: −log10 of the molar value. Where two headings read alike, the source gives them in different places.

Key:
[1] = biological target: human orexin-1 receptor (Homo sapiens (Human), UniProt O43613); assay: In vitro intracellular calcium measurements (FLIPR), antagonistic activity on orexin-1 receptor; format: cell-based; settings: read-out: IC50 OX1
Chain of human orexin-1 receptor (O43613 whole entry): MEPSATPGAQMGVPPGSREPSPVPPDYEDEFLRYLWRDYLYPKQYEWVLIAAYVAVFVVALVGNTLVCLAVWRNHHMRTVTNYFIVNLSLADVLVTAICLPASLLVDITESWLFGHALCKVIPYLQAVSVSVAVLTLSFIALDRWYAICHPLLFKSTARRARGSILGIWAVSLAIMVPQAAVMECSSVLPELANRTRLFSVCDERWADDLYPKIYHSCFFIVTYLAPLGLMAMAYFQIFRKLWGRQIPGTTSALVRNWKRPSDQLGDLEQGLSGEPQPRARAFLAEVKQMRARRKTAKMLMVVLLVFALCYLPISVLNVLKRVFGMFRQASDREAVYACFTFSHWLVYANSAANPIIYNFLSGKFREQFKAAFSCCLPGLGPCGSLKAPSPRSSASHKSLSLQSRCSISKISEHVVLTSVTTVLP
In short: (§1)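 CHO cells expressing human orexin-1 or orexin-2 receptor were seeded overnight, preincubated with antagonist for 120 min, then stimulated with agonist in a FLIPR Tetra.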

[2] = biological target: human orexin-2 receptor (Homo sapiens (Human), UniProt O43614); assay: In vitro intracellular calcium measurements (FLIPR), antagonistic activity on orexin-2 receptor; format: cell-based; settings: read-out: IC50 OX2
Chain of human orexin-2 receptor (O43614 whole entry): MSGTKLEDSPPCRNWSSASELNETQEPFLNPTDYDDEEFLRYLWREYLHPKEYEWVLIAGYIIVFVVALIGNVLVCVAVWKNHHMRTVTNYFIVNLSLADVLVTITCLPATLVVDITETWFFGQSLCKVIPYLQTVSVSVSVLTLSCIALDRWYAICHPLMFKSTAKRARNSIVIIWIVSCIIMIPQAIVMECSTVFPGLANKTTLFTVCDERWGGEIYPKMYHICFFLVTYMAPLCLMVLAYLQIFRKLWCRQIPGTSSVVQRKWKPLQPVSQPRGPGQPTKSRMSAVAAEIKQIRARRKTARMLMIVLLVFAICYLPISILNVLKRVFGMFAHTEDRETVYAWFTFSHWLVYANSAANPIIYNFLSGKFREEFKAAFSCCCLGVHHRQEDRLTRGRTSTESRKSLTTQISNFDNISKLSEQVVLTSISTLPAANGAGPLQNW
In short: as §1

[3] = biological target: CYP3A4 (Homo sapiens (Human), UniProt P08684); assay: CYP3A4 inhibition assay (human liver microsomes, testosterone 6β-hydroxylation); settings: read-out: CYP3A4 IC50, 40 μM testosterone
Chain of CYP3A4 (P08684 whole entry): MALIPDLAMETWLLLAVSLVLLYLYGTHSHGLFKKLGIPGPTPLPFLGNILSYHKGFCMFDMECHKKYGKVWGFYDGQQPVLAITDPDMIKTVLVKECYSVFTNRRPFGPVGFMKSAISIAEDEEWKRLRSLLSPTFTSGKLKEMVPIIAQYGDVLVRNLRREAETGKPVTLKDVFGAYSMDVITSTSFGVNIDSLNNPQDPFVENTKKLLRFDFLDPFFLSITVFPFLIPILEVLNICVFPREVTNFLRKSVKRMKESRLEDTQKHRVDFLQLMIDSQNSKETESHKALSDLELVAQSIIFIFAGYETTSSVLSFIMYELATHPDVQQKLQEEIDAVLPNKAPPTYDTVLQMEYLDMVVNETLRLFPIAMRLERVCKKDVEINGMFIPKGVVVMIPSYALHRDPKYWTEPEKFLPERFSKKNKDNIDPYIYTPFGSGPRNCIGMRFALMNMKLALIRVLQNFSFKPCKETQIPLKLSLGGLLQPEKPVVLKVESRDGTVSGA
Description: The CYP3A4 inhibition assay was performed using human liver microsomes and testosterone 6β-hydroxylation as a P450 isoform-specific marker. In a total volume of 150 μL, ^14C-testosterone at a final concentration of 40 μM in a 100 mM phosphate buffer (pH 7.4) was incubated in a 96-well plate with 0.3 mg/mL of human liver microsomes in an Eppendorf thermomixer at 37° C. and 400 rpm. […] The reaction was initiated by addition of 15 μL of the NADPH-regenerating system containing the glucose-6-phosphate dehydrogenase and terminated after 7 min with a 75 μL-aliquot of methanol. After centrifugation at 465 g and 4° C. for 20 min, a 50 μL-aliquot of the supernatant was submitted to HPLC according to the method described below. The total concentration of DMSO in the assay including controls without inhibitor was 1%.
Nicardipine was run in parallel as a reference inhibitor of CYP3A4 activity at final concentrations of 0, 0.1, 0.5, 1.0, 5.0, 10, 25, and 50 μM. Stock solutions thereof were prepared in DMSO.
The chromatographic separation of testosterone and 6β-hydroxytestosterone was achieved on a Phenomenex Luna C18(2) column (5 μm, 2.0×10 mm) at RT with a flow rate of 0.6 mL/min. Mobile phases consisted of 1% aqueous formic acid (phase A) and methanol (phase B) using a gradient method with 0.9 min total run time.
The quantification of 6β-hydroxytestosterone was carried out using a quadrupole mass spectrometer equipped with an ionspray interface operating in positive ion mode. The parameters of the mass detector were set as follows: capillary voltage 5 kV, auxiliary gas 40 psi, collision gas 3 mTorr, and transfer capillary temperature 420° C.

[4] = CHO cells expressing human orexin-1 receptor, FLIPR, 3 nM orexin-A agonist, 120 min antagonist incubation, geometric mean if determined several times
[5] = CHO cells expressing human orexin-2 receptor, FLIPR, 3 nM orexin-A agonist, 120 min antagonist incubation, geometric mean if determined several times

pIC50 [1, 4]	pIC50 [2, 5]	pIC50 [3]	Compound	pIC50 [1]	pIC50 [2]
7.48	6.44	< 4.30	N#Cc1ccc(-n2nccn2)c(C(=O)N2CCOC[C@H]2Cc2cccc(-n3nccn3)c2)c1 [Example 31, 4-[1,2,3]Triazol-2-yl-3-[(R)-3-(3-[1,2,3]triazol-2-yl-benzyl)-morpholine-4-carbonyl]-benzonitrile]		
7.85	5.92	< 4.30	COc1ccc(-n2nccn2)c(C(=O)N2CCOC[C@H]2Cc2cccc(-n3nccn3)c2)c1F [Example 33, (2-Fluoro-3-methoxy-6-[1,2,3]triazol-2-yl-phenyl)-[(R)-3-(3-[1,2,3]triazol-2-yl-benzyl)-morpholin-4-yl]-methanone]		
8.30	5.91	< 4.30	COc1cc(C(=O)N2CCOC[C@H]2Cc2cccc(-n3nccn3)c2)c(-n2nccn2)cc1OC [Example 34, (4,5-Dimethoxy-2-[1,2,3]triazol-2-yl-phenyl)-[(R)-3-(3-[1,2,3]triazol-2-yl-benzyl)-morpholin-4-yl]-methanone]		
8.30	6.64	4.74	Cc1ccc(-n2nccn2)c(C(=O)N2CCOC[C@H]2Cc2cccc(-c3nccc(C)n3)c2)c1 [Example 39, {(R)-3-[3-(4-Methyl-pyrimidin-2-yl)-benzyl]-morpholin-4-yl}-(5-methyl-2-[1,2,3]triazol-2-yl-phenyl)-methanone]		
7.47	5.70	5.29	O=C(c1ccccc1-n1nccn1)N1CCOC[C@H]1Cc1cccc(-c2ncco2)c1 [Example 42, [(R)-3-(3-Oxazol-2-yl-benzyl)-morpholin-4-yl]-(2-[1,2,3]triazol-2-yl-phenyl)-methanone]		
9.52	6.56	5.92	Cc1ccc(-n2nccn2)c(C(=O)N2CCOC[C@H]2Cc2cccc(-c3nccs3)c2)c1 [Example 43, (5-Methyl-2-[1,2,3]triazol-2-yl-phenyl)-[(R)-3-(3-thiazol-2-yl-benzyl)-morpholin-4-yl]-methanone]		
8.70	6.34	5.70	O=C(c1ccccc1-n1nccn1)N1CCOC[C@H]1Cc1cccc(-c2nccs2)c1 [Example 44, [(R)-3-(3-Thiazol-2-yl-benzyl)-morpholin-4-yl]-(2-[1,2,3]triazol-2-yl-phenyl)-methanone]		
7.89	5.62	5.22	Cc1ccc(-n2nccn2)c(C(=O)N2CCOC[C@H]2Cc2cccc(-c3cccnn3)c2)c1 [Example 47, (5-Methyl-2-[1,2,3]triazol-2-yl-phenyl)-[(R)-3-(3-pyridazin-3-yl-benzyl)-morpholin-4-yl]-methanone]		
7.41	5.35	5.02	O=C(c1ccccc1-n1nccn1)N1CCOC[C@H]1Cc1cccc(-c2cccnn2)c1 [Example 48, [(R)-3-(3-Pyridazin-3-yl-benzyl)-morpholin-4-yl]-(2-[1,2,3]triazol-2-yl-phenyl)-methanone]		
8.70	6.03	< 4.30	COc1ccc(-n2nccn2)c(C(=O)N2CCOC[C@H]2Cc2cccc(-c3ncccn3)c2)c1 [Example 50, (5-Methoxy-2-[1,2,3]triazol-2-yl-phenyl)-[(R)-3-(3-pyrimidin-2-yl-benzyl)-morpholin-4-yl]-methanone]		
8.52	6.64	4.70	O=C(c1cc(Cl)ccc1-n1nccn1)N1CCOC[C@H]1Cc1cccc(-c2ncccn2)c1 [Example 51, (5-Chloro-2-[1,2,3]triazol-2-yl-phenyl)-[(R)-3-(3-pyrimidin-2-yl-benzyl)-morpholin-4-yl]-methanone]		
7.37	5.79	< 4.30	Cc1ccc(-n2nccn2)c(C(=O)N2CCOC[C@H]2Cc2cccc(-n3nccn3)c2)n1 [Example 52, (6-Methyl-3-[1,2,3]triazol-2-yl-pyridin-2-yl)-[(R)-3-(3-[1,2,3]triazol-2-yl-benzyl)-morpholin-4-yl]-methanone]		
7.57	5.47	< 4.30	Cc1ccc(-n2nccn2)c(C(=O)N2CCOC[C@H]2Cc2cccc(-n3cccn3)c2)n1 [Example 53, (6-Methyl-3-[1,2,3]triazol-2-yl-pyridin-2-yl)-[(R)-3-(3-pyrazol-1-yl-benzyl)-morpholin-4-yl]-methanone]		
7.34	5.74	< 4.30	O=C(c1cccc(F)c1-n1nccn1)N1CCOC[C@H]1Cc1cccc(-n2nccn2)c1 [Example 54, (3-Fluoro-2-[1,2,3]triazol-2-yl-phenyl)-[(R)-3-(3-[1,2,3]triazol-2-yl-benzyl)-morpholin-4-yl]-methanone]		
8.40	6.08	4.48	Cc1ccc(-n2nccn2)c(C(=O)N2CCOC[C@H]2Cc2cc(-n3nccn3)ccc2F)c1 [Example 56, [(R)-3-(2-Fluoro-5-[1,2,3]triazol-2-yl-benzyl)-morpholin-4-yl]-(5-methyl-2-[1,2,3]triazol-2-yl-phenyl)-methanone]		
7.32	5.56	4.70	O=C(c1ccccc1-n1nccn1)N1CCOC[C@H]1Cc1cc(-n2nccn2)ccc1F [Example 57, [(R)-3-(2-Fluoro-5-[1,2,3]triazol-2-yl-benzyl)-morpholin-4-yl]-(2-[1,2,3]triazol-2-yl-phenyl)-methanone]		
9.15	7.38	4.38	COc1ccc(C[C@@H]2COCCN2C(=O)c2cc(C)ccc2-n2nccn2)cc1-c1ncon1 [Example 58, [(R)-3-(4-Methoxy-3-[1,2,4]oxadiazol-3-yl-benzyl)-morpholin-4-yl]-(5-methyl-2-[1,2,3]triazol-2-yl-phenyl)-methanone]		
9.00	7.10	4.49	COc1ccc(C[C@@H]2COCCN2C(=O)c2ccccc2-n2nccn2)cc1-c1ncon1 [Example 59, [(R)-3-(4-Methoxy-3-[1,2,4]oxadiazol-3-yl-benzyl)-morpholin-4-yl]-(2-[1,2,3]triazol-2-yl-phenyl)-methanone]		
9.15	7.47	4.39	COc1ccc(C[C@@H]2COCCN2C(=O)c2ccc(C)cc2-n2nccn2)cc1-c1ncon1 [Example 60, [(R)-3-(4-Methoxy-3-[1,2,4]oxadiazol-3-yl-benzyl)-morpholin-4-yl]-(4-methyl-2-[1,2,3]triazol-2-yl-phenyl)-methanone]		
9.00	7.22	4.38	COc1ccc(C[C@@H]2COCCN2C(=O)c2ccc(F)cc2-n2nccn2)cc1-c1ncon1 [Example 61, (4-Fluoro-2-[1,2,3]triazol-2-yl-phenyl)-[(R)-3-(4-methoxy-3-[1,2,4]oxadiazol-3-yl-benzyl)-morpholin-4-yl]-methanone]		
8.70	6.58	4.66	Cc1ccc(-n2nccn2)c(C(=O)N2CCOC[C@H]2Cc2ccc(C)c(-n3nccn3)c2)c1 [Example 65, [(R)-3-(4-Methyl-3-[1,2,3]triazol-2-yl-benzyl)-morpholin-4-yl]-(5-methyl-2-[1,2,3]triazol-2-yl-phenyl)-methanone]		
7.80	6.00	4.44	Cc1ccc(C[C@@H]2COCCN2C(=O)c2ccccc2-n2nccn2)cc1-n1nccn1 [Example 66, [(R)-3-(4-Methyl-3-[1,2,3]triazol-2-yl-benzyl)-morpholin-4-yl]-(2-[1,2,3]triazol-2-yl-phenyl)-methanone]		
7.80	5.89	4.62	C[C@@H]1COC[C@@H](Cc2cccc(-n3nccn3)c2)N1C(=O)c1ccccc1-n1nccn1 [Example 68, [(3R,5R)-3-Methyl-5-(3-[1,2,3]triazol-2-yl-benzyl)-morpholin-4-yl]-(2-[1,2,3]triazol-2-yl-phenyl)-methanone]		
8.00	5.73	5.17	Cc1ccc(-n2nccn2)c(C(=O)N2[C@H](Cc3cccc(-n4nccn4)c3)COC[C@@H]2C)c1 [Example 73, [(3S,5R)-3-Methyl-5-(3-[1,2,3]triazol-2-yl-benzyl)-morpholin-4-yl]-(5-methyl-2-[1,2,3]triazol-2-yl-phenyl)-methanone]		

Compound	pIC50 [1, 4]	pIC50 [2, 5]	pIC50 [3]	pIC50 [1]	pIC50 [2]
COc1ccc(-n2nccn2)c(C(=O)N2CCOC[C@H]2Cc2cccc(-n3nccn3)c2)c1 [Example 32, (5-Methoxy-2-[1,2,3]triazol-2-yl-phenyl)-[(R)-3-(3-[1,2,3]triazol-2-yl-benzyl)-morpholin-4-yl]-methanone]			< 4.30	8.15	6.31
O=C(c1ccc(F)cc1-n1nccn1)N1CCOC[C@H]1Cc1cccc(-n2nccn2)c1 [Example 36, (4-Fluoro-2-[1,2,3]triazol-2-yl-phenyl)-[(R)-3-(3-[1,2,3]triazol-2-yl-benzyl)-morpholin-4-yl]-methanone]			4.44	7.39	6.05
Cc1ccc(C(=O)N2CCOC[C@H]2Cc2ccc(C)c(-n3nccn3)c2)c(-n2nccn2)c1 [Example 67, [(R)-3-(4-Methyl-3-[1,2,3]triazol-2-yl-benzyl)-morpholin-4-yl]-(4-methyl-2-[1,2,3]triazol-2-yl-phenyl)-methanone]			4.60	8.70	6.56
Cc1ccc(C(=O)N2[C@H](Cc3cccc(-n4nccn4)c3)COC[C@@H]2C)c(-n2nccn2)c1 [Example 71, [(3S,5R)-3-Methyl-5-(3-[1,2,3]triazol-2-yl-benzyl)-morpholin-4-yl]-(4-methyl-2-[1,2,3]triazol-2-yl-phenyl)-methanone]			4.85	7.46	5.66
